Experimental data as given in ChEMBL document CHEMBL5029168, “Discovery of novel ID2 antagonists from pharmacophore-based virtual screening as potential therapeutics for glioma” (Bioorg Med Chem, 2021).
Calls of active or inactive are those of the source. The rule behind the calls is not given here.

Columns and labels:
U-87 MG [1] = experiment: Cytotoxicity against human U87 cells assessed as reduction in cell viability incubated for 24 hrs by CCK8 assay; format: functional, cell-based, U-87MG ATCC
Hs 683 = experiment: Cytotoxicity against human Hs 683 cells assessed as reduction in cell viability incubated for 24 hrs by CCK8 assay; format: functional, cell-based; conditions: Hs 683, 24 h
GL261 [2] = experiment: Cytotoxicity against mouse GL261 cells assessed as reduction in cell viability incubated for 24 hrs by CCK8 assay; format: functional, cell-based; conditions: GL261, 24 h
[3] = Binding affinity to CM5 sensor chip immobilized human ID2 assessed as dissociation constant by SPR analysis
GL261 [4] = experiment: Antimigratory activity against mouse GL261 cells assessed as reduction in wound closure at 12.5 uM measured up to 24 hrs by scratch wound healing assay (Rvb =63.3+/-0.78%); format: functional; design: scale not given: the % may be the effect or the level left; conditions: time hrs <=24
U-87 MG [5] = experiment: Antimigratory activity against human U87 cells assessed as reduction in wound closure at 12.5 uM measured up to 24 hrs by scratch wound healing assay (Rvb =61.5+/-10.21%); format: functional, U-87MG ATCC; design: scale not given: the % may be the effect or the level left; conditions: time hrs <=24
GL261 [6] = experiment: Antimigratory activity against mouse GL261 cells assessed as inhibition of cell migration measured after 24 hrs by crystal violet staining based inverted microscopic analysis; format: functional
U-87 MG [7] = experiment: Antimigratory activity against human U87 cells assessed as inhibition of cell migration measured after 24 hrs by crystal violet staining based inverted microscopic analysis; format: functional; conditions: U-87MG ATCC
GL261 [8] = experiment: Antiinvasive activity against mouse GL261 cells assessed as inhibition of cell invasion measured after 24 hrs by crystal violet staining based inverted microscopic analysis; format: functional
U-87 MG [9] = experiment: Antiinvasive activity against human U87 cells assessed as inhibition of cell invasion measured after 24 hrs by crystal violet staining based inverted microscopic analysis; format: functional; conditions: U-87MG ATCC
GL261 [10] = experiment: Induction of apoptosis in mouse GL261 cells assessed as viable cells at 25 uM measured after 24 hrs by annexin V-FITC/propidium iodide staining based flow cytometry analysis (reference value: 96.1%); format: functional; conditions: read-out: Activity
GL261 [11] = experiment: Induction of apoptosis in mouse GL261 cells assessed as early apoptotic cells at 25 uM measured after 24 hrs by annexin V-FITC/propidium iodide staining based flow cytometry analysis (reference value: 1.67%); format: functional
GL261 [12] = experiment: Induction of apoptosis in mouse GL261 cells assessed as late apoptotic cells at 25 uM measured after 24 hrs by annexin V-FITC/propidium iodide staining based flow cytometry analysis (reference value: 1.01%); format: functional
GL261 [13] = experiment: Induction of apoptosis in mouse GL261 cells assessed as viable cells at 50 uM measured after 24 hrs by annexin V-FITC/propidium iodide staining based flow cytometry analysis (reference value: 96.1%); format: functional; conditions: read-out: Activity
GL261 [14] = experiment: Induction of apoptosis in mouse GL261 cells assessed as early apoptotic cells at 50 uM measured after 24 hrs by annexin V-FITC/propidium iodide staining based flow cytometry analysis (reference value: 1.61%); format: functional
GL261 [15] = experiment: Induction of apoptosis in mouse GL261 cells assessed as late apoptotic cells at 50 uM measured after 24 hrs by annexin V-FITC/propidium iodide staining based flow cytometry analysis (reference value: 1.01%); format: functional
GL261 [16] = experiment: Induction of apoptosis in mouse GL261 cells assessed as dead cells at 50 uM measured after 24 hrs by annexin V-FITC/propidium iodide staining based flow cytometry analysis (reference value: 1.22%); format: functional
U-87 MG [17] = experiment: Induction of apoptosis in human U87 cells assessed as viable cells at 25 uM measured after 24 hrs by annexin V-FITC/propidium iodide staining based flow cytometry analysis (reference value: 89.6%); format: functional, U-87MG ATCC; conditions: read-out: Activity
U-87 MG [18] = experiment: Induction of apoptosis in human U87 cells assessed as early apoptotic cells at 25 uM measured after 24 hrs by annexin V-FITC/propidium iodide staining based flow cytometry analysis (reference value: 4.35%); format: functional, U-87MG ATCC
U-87 MG [19] = experiment: Induction of apoptosis in human U87 cells assessed as late apoptotic cells at 25 uM measured after 24 hrs by annexin V-FITC/propidium iodide staining based flow cytometry analysis (reference value: 2.56%); format: functional, U-87MG ATCC
U-87 MG [20] = experiment: Induction of apoptosis in human U87 cells assessed as dead cells at 25 uM measured after 24 hrs by annexin V-FITC/propidium iodide staining based flow cytometry analysis (Rvb =3.52 %); format: functional, U-87MG ATCC
U-87 MG [21] = experiment: Induction of apoptosis in human U87 cells assessed as viable cells at 50 uM measured after 24 hrs by annexin V-FITC/propidium iodide staining based flow cytometry analysis (reference value: 89.6%); format: functional, U-87MG ATCC; conditions: read-out: Activity
U-87 MG [22] = experiment: Induction of apoptosis in human U87 cells assessed as early apoptotic cells at 50 uM measured after 24 hrs by annexin V-FITC/propidium iodide staining based flow cytometry analysis (reference value: 4.35%); format: functional, U-87MG ATCC
U-87 MG [23] = experiment: Induction of apoptosis in human U87 cells assessed as late apoptotic cells at 50 uM measured after 24 hrs by annexin V-FITC/propidium iodide staining based flow cytometry analysis (reference value: 2.56%); format: functional, U-87MG ATCC
U-87 MG [24] = experiment: Induction of apoptosis in human U87 cells assessed as dead cells at 50 uM measured after 24 hrs by annexin V-FITC/propidium iodide staining based flow cytometry analysis (Rvb =3.52 %); format: functional, U-87MG ATCC
U87 [25] = experiment: Inhibition of ID2/KDR signalling in human U87 cells assessed as decrease in ID2 protein level measured after 24 hrs by western blot analysis; format: cell-based; conditions: filed as antagonist
U87 [26] = experiment: Inhibition of ID2/KDR signalling in human U87 cells assessed as decrease in VEGFA protein level measured after 24 hrs by western blot analysis; format: cell-based; conditions: filed as antagonist
U87 [27] = experiment: Inhibition of ID2/KDR signalling in human U87 cells assessed as decrease in KDR protein level measured after 24 hrs by western blot analysis; format: cell-based; conditions: filed as antagonist
U87 [28] = experiment: Inhibition of ID2/KDR signalling in human U87 cells assessed as increase in PTEN expression at 12.5 to 50 uM measured after 24 hrs by western blot analysis; format: cell-based; conditions: filed as antagonist, dose 12.5-50 µM
U87 [29] = experiment: Inhibition of ID2/KDR signalling in human U87 cells assessed as reduction in MMP2 expression at 12.5 to 50 uM measured after 24 hrs by western blot analysis; format: cell-based; conditions: filed as antagonist, dose 12.5-50 µM
U87 [30] = experiment: Inhibition of ID2/KDR signalling in human U87 cells assessed as reduction in MMP9 expression at 12.5 to 50 uM measured after 24 hrs by western blot analysis; format: cell-based; conditions: filed as antagonist, dose 12.5-50 µM
U87 [31] = experiment: Inhibition of ID2/KDR signalling in human U87 cells assessed as reduction in ID2 mRNA expression at 12.5 to 50 uM measured after 24 hrs by qRT-PCR analysis; format: cell-based; conditions: filed as antagonist, dose 12.5-50 µM
U87 [32] = experiment: Inhibition of ID2/KDR signalling in human U87 cells assessed as reduction in KDR mRNA expression at 12.5 to 50 uM measured after 24 hrs by qRT-PCR analysis; format: cell-based; conditions: filed as antagonist, dose 12.5-50 µM
[33] = Antitumor activity against human U87 cells xenografted in NCG mouse assessed as tumor growth inhibition at 2.5 mg/kg, ip administered every other day for 5 days relative to control; format: functional, U-87MG ATCC; design: scale not given: the % may be the effect or the level left; conditions: time 5 day
[34] = Antitumor activity against human U87 cells xenografted in NCG mouse assessed as reduction in tumor weight at 2.5 mg/kg, ip administered every other day for 5 days and measured after 12 days relative to control; format: functional, U-87MG ATCC; design: scale not given: the % may be the effect or the level left; conditions: time 12 day
[35] = Toxicity in NCG mouse xenografted with human U87 cells assessed as reduction in body weight at 2.5 mg/kg, ip administered every other day for 5 days and measured after 12 days; format: organism-based; conditions: in vivo, 288 h, time 12 day
[36] = Toxicity in NCG mouse xenografted with human U87 cells assessed as heart damage at 2.5 mg/kg, ip administered every other day for 5 days and measured after 7 days post first dose by H and E staining based assay; format: organism-based; conditions: in vivo, 168 h, time 7 day
U-87MG ATCC [37] = experiment: Antitumor activity against human U87 cells xenografted in NCG mouse assessed as reduction in CD31 marker expression in tumor at 2.5 mg/kg, ip administered every other day for 5 days and measured after 7 days post first dose by immunohistochemical analysis; format: functional, organism-based; conditions: time 7.0 day
U-87MG ATCC [38] = experiment: Antitumor activity against human U87 cells xenografted in NCG mouse assessed as reduction in Ki67 expression in tumor at 2.5 mg/kg, ip administered every other day for 5 days and measured after 7 days post first dose by immunohistochemical analysis; format: functional, organism-based; conditions: time 7.0 day
[39] = Toxicity in NCG mouse […] with human U87 cells assessed as liver damage at 2.5 mg/kg, ip administered every other day for 5 days and measured after 7 days post first dose by H and E staining based assay; format: organism-based; conditions: in vivo, 168 h, time 7 day
[40] = Toxicity in NCG mouse […] with human U87 cells assessed as lung damage at 2.5 mg/kg, ip administered every other day for 5 days and measured after 7 days post first dose by H and E staining based assay; format: organism-based; conditions: in vivo, 168 h, time 7 day
[41] = Toxicity in NCG mouse […] with human U87 cells assessed as kidney damage at 2.5 mg/kg, ip administered every other day for 5 days and measured after 7 days post first dose by H and E staining based assay; format: organism-based; conditions: in vivo, 168 h, time 7 day
[42] = Aqueous solubility of compound at up to 80 uM measured after 10 mins by optical microscopic analysis; format: physicochemical; conditions: buffer
L02 = experiment: Cytotoxicity against human L02 cells assessed as reduction in cell viability at up to 100 nM incubated for 24 hrs by CCK8 assay; format: cell-based; conditions: l02, 24 h
NIH3T3 = experiment: Cytotoxicity against mouse 3T3 cells assessed as reduction in cell viability at up to 100 nM incubated for 24 hrs by CCK8 assay; format: cell-based; conditions: nih3t3, 24 h
Homo sapiens [43] = species on record: Homo sapiens; experiment: Binding affinity to CM5 sensor chip immobilized human ID2 assessed as association constant by SPR analysis; conditions: filed as antagonist
Homo sapiens [44] = species on record: Homo sapiens; experiment: Binding affinity to CM5 sensor chip immobilized human ID2 assessed as maximum response by SPR analysis; conditions: filed as antagonist

With `COc1ccccc1[C@H](CNC(=O)CCc1c[nH]c2ccccc12)N1CCCC1` the IC50 (U-87 MG [1]) was greater than 100 µM, the IC50 (Hs 683) was greater than 100 µM and the IC50 (GL261 [2]) was 94.6 µM.
Compound `COc1cccc2c1OC(c1ccc(F)cc1)N1N=C(c3ccccc3)CC21` (stereo unspecified) has an IC50 (U-87 MG [1]) greater than 100 µM, an IC50 (Hs 683) greater than 100 µM and an IC50 (GL261 [2]) greater than 100 µM.
With `COc1ccc(N2C(=O)C[C@H](C(=O)NC3CCCCC3)[C@H]2c2ccc(F)cc2)cc1` the IC50 (U-87 MG [1]) was 77.9 µM, the IC50 (Hs 683) was 84.5 µM and the IC50 (GL261 [2]) was 90.2 µM.
In the case of `O=C(C[C@@]1(O)C(=O)N(Cc2cccc(Cl)c2)c2ccccc21)c1ccccn1`, the IC50 (U-87 MG [1]) is reported as 27.3 µM, the IC50 (Hs 683) is reported as 34.2 µM and the IC50 (GL261 [2]) is reported as 38.2 µM. For the same compound, the Kd [3] was 0.129 µM, the Activity (GL261 [4]) was 13.11% and the Activity (U-87 MG [5]) was 5.59%. For the same compound, the Activity (GL261 [6]) was “Dose-Dependent Effect”, the Activity (U-87 MG [7]) was “Dose-Dependent Effect” and the Activity (GL261 [8]) was “Dose-Dependent Effect”. The Activity (U-87 MG [9]) was “Dose-Dependent Effect”, the viability at 25 µM (GL261 [10]) was 70.2% and the Activity (GL261 [11]) was 8.24%. For the same compound, the Activity (GL261 [12]) was 16%, the viability at 50 µM (GL261 [13]) was 6.58% and the Activity (GL261 [14]) was 13.1%. For the same compound, the Activity (GL261 [15]) was 69.3%, the Activity (GL261 [16]) was 11% and the viability at 25 µM (U-87 MG [17]) was 8.04%. For the same compound, the Activity (U-87 MG [18]) was 45.4%, the Activity (U-87 MG [19]) was 43.9% and the Activity (U-87 MG [20]) was 2.72%. For the same compound, the viability at 50 µM (U-87 MG [21]) was 2.61%, the Activity (U-87 MG [22]) was 27.3% and the Activity (U-87 MG [23]) was 68.8%. For the same compound, the Activity (U-87 MG [24]) was 1.29%, the inhibition (U87 [25]) was “Dose-Dependent Effect” and the inhibition (U87 [26]) was “Dose-Dependent Effect”. The inhibition (U87 [27]) was “Dose-Dependent Effect”, the inhibition (U87 [28]) was “Active” and the inhibition (U87 [29]) was “Active”. For the same compound, the inhibition (U87 [30]) was “Active”, the inhibition (U87 [31]) was “Active” and the inhibition (U87 [32]) was “Active”. For the same compound, the Activity [33] was 49.7%, the Activity [34] was 57.8% and the Activity [35] was “Non-Toxic”. For the same compound, the Activity [36] was “Non-Toxic”, the Activity (U-87MG ATCC [37]) was “Active” and the Activity (U-87MG ATCC [38]) was “Active”. The Activity [39] was “Non-Toxic”, the Activity [40] was “Non-Toxic” and the Activity [41] was “Non-Toxic”. The solubility [42] was “Soluble”, the Activity (L02) was “Non-Toxic” and the Activity (NIH3T3) was “Non-Toxic”. The Ka (Homo sapiens [43]) was 24.8 M⁻¹ s⁻¹ and the Rmax (Homo sapiens [44]) was 83.6 RU.
